Measured values: paper PMC12040169 (PLOS Biology, 2025)

Test: in vitro
Conditions: human, hela cells, % viability

SMILES | viability at 28.5 h, 10 µM | viability at 28.5 h, 10 µM (bulk resorufin, single well)
O=C(Nc1ccc(Cc2ccncc2)cc1)c1sc2c([N+](=O)[O-])cccc2c1Cl [CBK269635] | 97.1% | 
CN(C)CCCNC=C1C(=O)CC(C)(C)CC1=O [CBK262043] | 92.2% | 
Nc1cccc(-c2cn(C[C@H]3CC4CCN3C[C@@H]4C(=O)NC3CCCCC3)nn2)c1 (some centres unmarked) [CBK289083] | 84.2% | 
O=[N+]([O-])c1ccc(N2CCN(Cc3ccccc3)CC2)cc1NCc1ccccc1 [CBK045841] | 86.9% | 
O=[N+]([O-])c1cc(S(=O)(=O)Nc2nnc(C(F)(F)F)s2)ccc1Cl [CBK062021] | 105% | 
CCN(CC)C(=O)C1CCN(S(=O)(=O)c2ccc(C)cc2)CC1 [CBK157834] | 98.7% | 
CC(=O)Nc1cccc(-c2cc(Nc3ccc(N4CCN(Cc5ccccc5)CC4)cc3)ncn2)c1 [CBK037709] | 81.8% | 
CS(=O)(=O)Nc1ccc2cc(-c3ccsc3)cnc2n1 [CBK085665] | 102% | 
CC(=O)c1cccc(NC(=O)Cn2nc(N3CCSCC3)ccc2=O)c1 [CBK307625] | 102% | 
CC(=O)Nc1cccc(C(C)NC(=O)N(C)C2CCc3ccccc32)c1 (centres unmarked) [CBK306251] | 102% | 
CC(C)(C)c1ccnc(N[C@H]2CO[C@H]3[C@@H]2OC[C@@H]3NCc2ccccn2)n1 [CBK289524] | 86.6% | 
CNc1nc(NCCCn2c(C)cccc2=O)cc(C2CCOC2)n1 (centres unmarked) [CBK306875] | 117% | 
CC1CN(S(=O)(=O)c2ccc3c(c2)C(=O)c2cc(S(=O)(=O)N4CC(C)OC(C)C4)ccc2-3)CC(C)O1 (centres unmarked) [CBK263355] | 101% | 
COc1cc(F)ccc1S(=O)(=O)NC1CC(C)(C)NC(C)(C)C1 [CBK266428] | 112% | 
COc1ccccc1OCC(=O)N1CCC(Cn2cncn2)(C2CCCCC2)CC1 [CBK136797] | 91.9% | 
CN1CCC(N2CCN(C(=O)c3cncc(-c4[nH]nnc4-c4ccccc4)c3)CC2)CC1 [CBK160327] | 98.3% | 
CS(=O)(=O)c1ccc(-c2cccc(COC3CCN(C(=O)Cc4ccc(F)cc4F)CC3)c2)cc1 [CBK149506] | 87.8% | 
COc1ccc(-c2n[nH]cc2/C=N/NC(=O)c2cc(Br)ccc2O)c(OC)c1 [CBK262067] | 85.9% | 
CCC(Oc1ccccc1)C(=O)Nc1ccccc1-c1ccccc1 (centres unmarked) [CBK266031] | 108% | 
COc1ccc(Cl)cc1NC(=O)CCN1CCN(C)CC1 [CBK278177C] | 91% | 
Cc1nnc(C(C)Sc2nnc(N3CCC(C)CC3)n2Cc2ccco2)o1 (centres unmarked) [CBK298311] | 96.6% | 

SMILES | viability at 28.5 h, 10 µM | viability at 28.5 h, 10 µM (bulk resorufin, single well)
O=C(CC1(O)C(=O)N(Cc2ccccc2Cl)c2ccccc21)c1cc2ccccc2oc1=O (centres unmarked) [CBK265255] | 96.2% | 
Cc1nc(C)c(CCC(=O)NC2CCSc3c(F)cccc32)c(=O)[nH]1 (centres unmarked) [CBK295601] | 95.2% | 
CCn1c(-c2nonc2NC(C)=O)nc2ccccc21 [CBK062645] | 80% | 
O=C(O)CC(NC(=O)c1ccco1)c1ccc(F)cc1 (centres unmarked) [CBK057988] | 107% | 
CC(C)Cn1c(SCC(=O)N2CCNC2=O)nnc1-c1ccco1 [CBK295175] | 106% | 
Cc1ccc(C(=O)NCCN2CCC(O)(c3ccc(F)cc3)CC2)o1 [CBK283167] | 86.3% | 
CCn1c(SCC(=O)Nc2cc(C)ccc2F)nnc1-c1ccccc1O [CBK269532] | 91.4% | 
CCOC(=O)c1nc(C2CCN(c3cccc(F)c3C#N)CC2)n[nH]1 [CBK304711] | 119% | 
CC(C)(C)c1cc(NC(=O)CN2CCN(c3cccc(Cl)c3)CC2)on1 [CBK304525] | 85.7% | 
CCOc1ccc(N(Cc2ccc(C(=O)O)cc2)S(C)(=O)=O)cc1 [CBK287231] | 104% | 
CS(=O)(=O)N(Cc1ccc(Cl)cc1)c1ccc(C(=O)Nc2ccccc2C(F)(F)F)cc1 [CBK263988] | 101% | 
COC(=O)CNC(=O)CNS(=O)(=O)c1ccc(C(C)=O)cc1 [CBK044117] | 89.1% | 
CS(=O)(=O)N1CCN(c2ccccc2NC(=O)COc2ccc(Cl)cc2)CC1 [CBK268854] | 94.7% | 
O=C1NC(=S)NC(=O)C1=NNc1ccccc1C(=O)O [CBK262231] |  | 99.6%
CN1CCC(N(C)Cc2ccccc2[N+](=O)[O-])CC1 [CBK261565] | 93.8% | 
O=C(Cc1ccccc1)Nc1ccc(C(=O)O)cc1NC(=O)Cc1ccccc1 [CBK287049] | 108% | 
Fc1cccc(F)c1-c1cc(Nc2ccc(N3CCOCC3)cc2)ncn1 [CBK037673] | 99.5% | 
Cc1cc(C)c2c(OCC(=O)NC(C)C)nn(C)c2n1 [CBK306393] | 87.4% | 
CC(=O)N1CCC2(C/C=C/C[C@H]3CN(C(=O)CCC4CCCC4)CC[C@H]3NC(=O)CNC2=O)CC1 [CBK292111] | 87% | 
CC1CCN(C(C)Cn2cncc2-c2cnn(C)c2)CC1 (centres unmarked) [CBK281703] | 95.5% | 
CCOc1ccc2ccccc2c1CNCCc1ccc(S(N)(=O)=O)cc1 [CBK268732C] | 88.7% | 

SMILES | viability at 28.5 h, 10 µM | viability at 28.5 h, 10 µM (bulk resorufin, single well)
Cc1nc(NS(=O)(=O)c2cc(Br)c(Cl)s2)sc1C(=O)O [CBK045560] | 96% | 
O=C1NCCN(C(=O)c2cccc3cccnc23)C1Cc1ccc(-c2cccs2)cc1 (centres unmarked) [CBK285809] | 81.4% | 
Cc1ccc(S(=O)(=O)Nc2sccc2C(=O)O)cc1 [CBK042244] | 98.6% | 
O=c1cc(Cn2ccnc2)c2cc3c(cc2o1)CCC3 [CBK287813] | 88.8% | 
c1csc(CNCCCN2CCOCC2)c1 [CBK278305C] | 91.1% | 
CCN(CC)CCN(C(=O)c1cnn(C)c1C)C1CCS(=O)(=O)C1 (centres unmarked) [CBK305321] | 89.1% | 
O=C1CCC(=O)N1CCOc1nccnc1OC1CCN(Cc2ccccc2-c2ccccc2)CC1 [CBK084344] | 110% | 
CCNC(=O)NC1CC(C)(C)Cc2c1cnn2-c1ccc(OC)cc1 (centres unmarked) [CBK307313] | 90.6% | 
O=C(O)c1ccc(Nc2ncnc3c2cnn3Cc2ccccc2)cc1 [CBK263803] | 92.1% | 
CN(C)CCCN(Cc1ccco1)Cc1cccn1-c1ccccn1 [CBK283180] | 99.8% | 
CN1CCN(c2ccc(-c3cnc(N)c(NC4CCOCC4)n3)cc2)CC1 [CBK064114] | 88.8% | 
O=C1N(C2CCCCC2)CC2C(c3ccccc3)ONC12O (centres unmarked) [CBK021700] | 97% | 
COc1ccc2[nH]cc(CCNC(=O)CC(C)O)c2c1 (centres unmarked) [CBK116201] | 106% | 
Cc1nn(C)cc1C(C)NC(=O)C1CC2C=CC1C21CC1 (centres unmarked) [CBK282088] | 100% | 
COc1ccc(-c2cc(C(=O)Nc3nc4ccccc4[nH]3)cnc2-c2ccc(F)cc2)cn1 [CBK036617] | 98.6% | 
CS(=O)(=O)Nc1nnc(SCC(=O)Nc2cccc([N+](=O)[O-])c2)s1 [CBK045536] | 102% | 
O=C(Cn1cccc(C(=O)Nc2cc(F)ccc2N2CCCC2)c1=O)NC1CCCCC1 [CBK286008] | 88.9% | 
c1cncc(CNc2cccc(OCCOc3nccnc3N3CCNCC3)c2)c1 [CBK200008] | 89.2% | 
Cc1cc(C(F)(F)F)n2ncc(C(=O)N3CCCC3c3ccco3)c2n1 (centres unmarked) [CBK306557] | 93.5% | 
COc1ccc(S(=O)(=O)N2CCN(C(=O)COc3ccc(C)cc3)CC2)cc1 [CBK263354] | 90.2% | 
